Source: US20250223552A1, “METHOD FOR PREPARING T CELLS FOR ADOPTIVE T CELL THERAPY” (ST. JUDE CHILDREN'S RESEARCH HOSPITAL, INC., priority 2022, published 2025)

Columns and labels:
MC38-Ova tumors = test: MC38-Ova tumor growth after adoptive transfer of inhibitor-pretreated OT-I cells; format: in vivo; settings: OT-I cells transiently treated with inhibitor during activation, transferred into tumor-bearing mice; FIG. 3
Protocol: Naïve OT-I CD8^+ T cells were activated with anti-CD3/CD28 in the presence or absence of Arid1a inhibitor for 48 hours followed by expansion for another 4 days. Data are representative of two independent experiments. Data are shown as mean±s.e.m. **p<0.01; two-way ANOVA.
In Vivo Tumor Transplant Experiment. For B16-Ova and MC38-Ova tumors, 0.5×10^6 tumor cells were injected subcutaneously into naïve mice (7-10 weeks of age). OT-I cells (2×10^6) were transferred i.v. 7 days after tumor injection. Tumors were measured every two days.
Effective adoptive T cell therapy for cancer is critically dependent upon the use of T cells with long-term memory potential (Lugli et al. (2020) Trends Immunol. 41:17-28; Gattinoni et al. (2012) Nat. Rev. Cancer 12:671-684; Klebanoff et al. (2005) Proc. Natl. Acad. Sci. USA 102:9571-9576; Hurton et al. (2016) Proc. Natl. Acad. Sci. USA 113: E7788-E7797). Therefore, it was determined whether manipulation of CBAF can improve anti-tumor therapy. Accordingly, OT-I cells were transduced with sgRNA for Smarcd2 or control sgRNA, and the transduced cells were transferred into animals that were subsequently infected with Lm-Ova. Animals were then inoculated with B16F10 murine melanoma cells expressing Ova (B16-Ova) at memory phase (day >30 post-infection). Improved control of tumor growth and enhanced survival by the Smarcd2-ablated CD8^+ T cells were observed. […]

murine B7-H3 CAR-T cells = test: Phenotype of B7-H3 CAR-T cells generated from T cells transiently treated with Arid1a inhibitor; format: cell-based; settings: T cells activated 2 days with inhibitor, B7-H3 CAR transduction, additional 6 days culture
Protocol: Murine CAR-T cells were generated as described before (Haydar et al. (2021) Neuro-Oncol. 23:999-1011) with modification. Naïve CD8^+ T cells from 6-8 weeks old CD45.1^+ mice were activated with plate bound anti-CD3ε (1 μg/ml, Bio-X-Cell), anti-CD28 (2 μg/ml, Bio-X-Cell) and 50 U/ml rhIL-2 (Peprotech). On day 2 post-activation, CD8^+ T cells were transduced with retrovirus expressing B7-H3-CAR or control CAR on recombinant human fibronectin sold under the tradename RETRONECTIN® (Takara)-coated non-tissue culture treated plate in complete RPMI medium supplemented with 50 U/ml rhIL-2. At 48 hours after transduction, CAR-T cells were harvested and expanded in the presence of 10 ng/ml rhIL-15 (Peprotech) for another 3 days and then used d for in vivo and in vitro experiments.
(§1) Currently the most widely used adoptive T cell therapy employs the use of CARs. However, the use of CAR-T cells for the treatment of solid tumors remains challenging (Lim & June whether CAR-T cell (2017) Cell 168:724-740). […] The ability of B7-H3 CAR-T cells to control the growth of F420 cells was then assessed in vivo.

[1] = system: B7-H3-expressing GL261 tumor cells; test: Repeat stimulation assay of B7-H3 CAR-T cells with GL261 tumor cells; format: cell-based, murine; settings: CAR-T:tumor 3:1, counted every 3 days, FIG. 4
Protocol: T cells were transduced with B7-H3 CAR or a control CAR containing only the single-chain variable fragment (scFv) and transmembrane domain (B7-H3 STOP CAR) and co-cultured with GL261 tumor cells at the ratio of 3:1. Cells numbers were assessed every 3 days. Data are compiled from at least two independent experiments. Data are shown as mean±s.e.m. ***p<0.001; two-way ANOVA.
(§2) Repeat Stimulation Assay. For repeat stimulation assays, 3×10^5 tumor cells (GL261, F420) were plated in a 24-well plate and allowed to adhere for 4-6 hours at 37° C., CAR-T cells (1×10^6) were then added to the wells containing tumor cells without any exogenous cytokines (tumor: CAR-T cell ratio=1:3). After 3 days of co-culture, CAR-T cells were lifted by gentle pipetting to avoid disrupting adherent tumor cells, and the number of T cells was determined using a hemocytometer. Stimulations and cell counts were repeated every 3 days with the same tumor cells.
as §1

[2] = system: B7-H3-expressing F420 tumor cells; test: Repeat stimulation assay of B7-H3 CAR-T cells with F420 tumor cells; format: cell-based, murine; settings: CAR-T:tumor 3:1, counted every 3 days, FIG. 5
Protocol: T cells were transduced with B7-H3 CAR or a control CAR containing only the scFv and transmembrane domain (B7-H3 STOP CAR) and co-cultured with F420 tumor cells at the ratio of 3:1. Cells numbers were assessed every 3 days. Data are compiled from at least two independent experiments. Data are shown as mean±s.e.m. *p<0.05; two-way ANOVA.
as §2, §1

F420 tumor = test: F420 tumor-bearing mice treated with B7-H3 CAR-T cells pre-treated with Arid1a inhibitor; format: in vivo
Protocol: Data are representative of two independent experiments. Data are shown as mean±s.e.m. *p<0.05, ***p<0.001; two-way ANOVA.
Data are representative of two independent experiments. Log-rank (Mantel-Cox) test was performed for comparing survival curves.
For CAR-T tumor models, the murine osteosarcoma cell line F420 was derived from singly floxed p53+/F-Col2.3 transgenic mice (Zhao et al. (2015) Oncogene 34:5069-5079); 0.5×10^6 F420 cells were injected subcutaneously into naïve mice. Seven days after tumor transplant, 5×10^6 B7-H3 CAR-T cells were transferred i.v. without lymphodepleting chemotherapy and tumor size was measured every two days.
Currently the most widely used adoptive T cell therapy employs the use of CARs. However, the use of CAR-T cells for the treatment of solid tumors remains challenging (Lim & June whether CAR-T cell (2017) Cell 168:724-740). To examine function is enhanced by acute Arid1a inhibition, a CAR targeting murine B7-H3 (Haydar et al. (2021) Neuro-Oncol. 23:999-1011) was used in two B7-H3-positive cell lines, murine osteosarcoma F420 (Zhao et al. (2015) Oncogene 34:5069-5079; Kenneth et al. (2021) Mol. Ther. 29:326-326) and glioma GL261 (Haydar et al. (2021) Neuro-Oncol. 23:999-1011). Murine T cells were activated for 2 days in the presence or absence of the Arid1a inhibitor, followed by retroviral transduction of the B7-H3 CAR to generate CAR-T cells. […] The ability of B7-H3 CAR-T cells to control the growth of F420 cells was then assessed in vivo.

[3] = day 9 post-transfer, vs vehicle-treated CAR-T cells

## CO[C@H]1CN(C)C(=O)c2cc(NC(=O)NC(C)C)ccc2OC[C@H](C)N(Cc2ccc(-c3ccccn3)cc2)C[C@@H]1C [BRD-K98645985]
MC38-Ova tumors
  control of MC38-Ova tumor growth in vivo by transferred OT-I cells: improved the ability of OT-I cells to control
Murine B7-H3 CAR-T cells
  CAR expression compared with vehicle-treated controls: no difference in CAR expression
  CD62L expression of CAR-T cells: high CD62L expression
[1]
  expansion of CAR-T cells on repeated stimulation: greater expansion
[2]
  expansion of CAR-T cells on repeated stimulation: greater expansion
F420 tumor; B7-H3 CAR-T cells from transiently inhibitor-treated T cells vs untreated, FIG. 6
  tumor control (F420 tumor growth): markedly enhanced tumor control
F420 tumor; B7-H3 CAR-T cells from transiently inhibitor-treated T cells vs untreated, FIG. 7
  survival of F420 tumor-bearing mice: markedly enhanced
F420 tumor; [3]
  number of CAR-T cells among tumor infiltrating lymphocytes: higher numbers
  proportion of CD62L^+CD44^+ cells among tumor infiltrating CAR-T cells: higher proportion of CD62L^+CD44^+ cells
